# Source: the SangsterLogP compilation
# Test: method code SF, from DOI: 10.1007/bf00302523
row,Structure (SMILES),logP
1,CCc1cc(OP(=S)(OC)OC)ccc1[N+](=O)[O-],3.74
2,COP(=O)(OC)Oc1ccc([N+](=O)[O-])c(C(C)C)c1,2.57
3,COP(=O)(OC)Oc1ccc([N+](=O)[O-])cc1Cl,1.84
4,COP(=S)(OC)Oc1ccc([N+](=O)[O-])c(C(C)C)c1,4.05
5,COP(=O)(OC)Oc1cc(C)c([N+](=O)[O-])c(C)c1,2.26
6,COP(=S)(OC)Oc1ccc([N+](=O)[O-])c(C)c1,3.3
7,CCc1cc(OP(=O)(OC)OC)ccc1[N+](=O)[O-],2.19
8,COP(=O)(OC)Oc1ccc([N+](=O)[O-])c(Cl)c1,1.83
9,COP(=S)(OC)Oc1cc(C)c([N+](=O)[O-])c(C)c1,3.89
10,COP(=S)(OC)Oc1ccc([N+](=O)[O-])c(Cl)c1,3.45
11,COP(=S)(OC)Oc1ccc([N+](=O)[O-])cc1Cl,3.44
12,COP(=O)(OC)Oc1ccc([N+](=O)[O-])c(C)c1,1.69
